This note sets out measurements from ChEMBL document CHEMBL5226286, “The application of isatin-based multicomponent-reactions in the quest for new bioactive and druglike molecules” (Eur J Med Chem, 2021).

In assay [1] the test system is MCF7. In words: Antiproliferative activity against human MCF7 cells by MTT reduction assay. It is filed as functional, cell-based. On the technique in general: Tetrazolium assays rely on reduction of a dye to a coloured formazan, in cell work by metabolically active cells.
The next assay deals with Ehrlich. In words: Cytotoxicity against mouse EAC cells assessed as reduction in cell viability incubated for 2 hrs by trypan blue staining based microscopic analysis. It is filed as functional.
The next assay has as its system ECa-109 cell line. In words: Antiproliferative activity against human EC109 cells. In kind it is functional, cell-based.
Another assay relates to SMMC-7721. In words: Antiproliferative activity against human SMMC-7721 cells. In kind it is functional, cell-based.
The next assay deals with MGC-803. In words: Antiproliferative activity against human MGC-803 cells. In kind it is functional, cell-based.
Assay [2] deals with HepG2. Briefly: Anticancer activity against human HepG2 cells by MTT assay. In kind it is functional, cell-based.
Assay [3] has as its system MCF7. Briefly: Anticancer activity against human MCF7 cells by MTT assay. It is filed as functional, cell-based.
The test system of assay [4] is HCT-116. In words: Anticancer activity against human HCT-116 cells by MTT assay. In kind it is functional, cell-based.
Assay [5] has as its system Pseudomonas aeruginosa. In words: Antibacterial activity against Pseudomonas aeruginosa ATCC 27853. It is filed as functional.
For assay [6], the system named is Pseudomonas aeruginosa. In words: Antibacterial activity against Pseudomonas aeruginosa No.010. In kind it is functional.
For assay [7], the system named is Pseudomonas aeruginosa. Briefly: Antibacterial activity against multidrug resistant Pseudomonas aeruginosa 025. It is filed as functional.
Assay [8] relates to Pseudomonas aeruginosa. Briefly: Antibacterial activity against multidrug resistant Pseudomonas aeruginosa 034. In kind it is functional.
The test system of another assay is A549. Briefly: Cytotoxicity against human A549 cells. It is filed as functional, cell-based.
Assay [9] has as its system MCF7. In words: Cytotoxicity against human MCF7 cells. It is filed as functional, cell-based.
Assay [10] deals with HeLa. Briefly: Cytotoxicity against human HeLa cells. It is filed as functional, cell-based.
The test system of a further assay is SK-N-SH. Briefly: Antiproliferative activity against human SK-N-SH cells by MTT reduction assay. It is filed as functional, cell-based.
Assay [11] has as its system HepG2. In words: Antiproliferative activity against human HepG2 cells by MTT reduction assay. It is filed as functional, cell-based.
Assay [12] relates to HCT-116. Briefly: Cytotoxicity against human HCT-116 cells. In kind it is functional, cell-based.
The subject of the next assay is MDA-MB-435. Briefly: Antiproliferative activity against human MDA-MB-435 cells. In kind it is functional, cell-based.
In assay [13] the test system is HeLa. In words: Growth inhibition of human HeLa cells at 20 micromol relative to control. It is filed as functional. The following applies: dose 20 µmol.
The subject of assay [14] is HepG2. In words: Growth inhibition of human HepG2 cells at 20 micromol relative to control. It is filed as functional. The following applies: dose 20 µmol.
Another assay has as its system MDA-MB-231. In words: Growth inhibition of human MDA-MB-231 cells at 20 micromol relative to control. In kind it is functional. The note with it: dose 20 µmol.
The next assay relates to DU-145. Briefly: Cytotoxicity against human DU-145 cells incubated for 48 hrs by MTT assay. It is filed as functional, cell-based. The following applies: DU-145, 48 h.
Assay [15] concerns MCF7. In words: cells. In kind it is functional, cell-based. The note with it: Homo sapiens.
The test system of assay [16] is HepG2. Briefly: cells. The note with it: Homo sapiens. In kind it is functional, cell-based.
For assay [17], the system named is Staphylococcus aureus. In words: Antibacterial activity against Staphylococcus aureus ATCC 29213. It is filed as functional.
Assay [18] has as its system Staphylococcus aureus. Briefly: Antibacterial activity against methicillin resistant Staphylococcus aureus ATCC 43300. It is filed as functional.
The subject of assay [19] is Escherichia coli. Briefly: Antibacterial activity against Escherichia coli ATCC 25922. It is filed as functional.
The test system of the next assay is Klebsiella pneumoniae. In words: Antibacterial activity against Klebsiella pneumoniae ATCC 700603. In kind it is functional.
The nature of assay [20]: Antiproliferative activity against human U87 cells. It is filed as functional, cell-based, U-87MG ATCC. The following applies: U-87 MG.
For assay [21], the system named is HCT-116. Briefly: Antiproliferative activity against human HCT-116 cells. It is filed as functional, cell-based.
For another assay, the system named is PC-3. In words: Antiproliferative activity against human PC-3 cells. It is filed as functional, cell-based.
In assay [22] the test system is HeLa. In words: Anticancer activity against human HeLa cells by MTT assay. It is filed as functional, cell-based.
Assay [23] deals with Escherichia coli. In words: Antimicrobial activity against Escherichia coli ATCC 25922. It is filed as functional.
The test system of assay [24] is Streptococcus pneumoniae. Briefly: Antibacterial activity against Streptococcus pneumoniae incubated for 24 to 48 hrs by agar diffusion well method. It is filed as functional. The note with it: time 24-48 hrs. For orientation: A growth-free zone around the sample is the usual read-out of agar diffusion tests.
Assay [25] deals with Bacillus subtilis. Briefly: Antibacterial activity against Bacillus subtilis incubated for 24 to 48 hrs by agar diffusion well method. The following applies: time 24-48 hrs. It is filed as functional.
For assay [26], the system named is Pseudomonas aeruginosa. Briefly: Antibacterial activity against Pseudomonas aeruginosa incubated for 24 to 48 hrs by agar diffusion well method. The following applies: time 24-48 hrs. In kind it is functional.
For assay [27], the system named is Escherichia coli. In words: Antibacterial activity against Escherichia coli incubated for 24 to 48 hrs by agar diffusion well method. The note with it: time 24-48 hrs. It is filed as functional.
Assay [28] concerns Streptococcus pneumoniae. Briefly: Antibacterial activity against Streptococcus pneumoniae RCMB 010010 incubated for 24 hrs by agar well diffusion method. It is filed as functional.
Assay [29] has as its system Bacillus subtilis. Briefly: Antibacterial activity against Bacillus subtilis RCMB 010067 incubated for 24 hrs by agar well diffusion method. In kind it is functional.
Assay [30] has as its system Pseudomonas aeruginosa. In words: Antibacterial activity against Pseudomonas aeruginosa ATCC 85327. It is filed as functional.
Assay [31] concerns Bacillus subtilis. Briefly: Antibacterial activity against Bacillus subtilis. In kind it is functional.
The next assay deals with CCRF-CEM. Briefly: Antiproliferative activity against human CCRF-CEM cells. It is filed as functional, cell-based.
The next assay concerns SK-OV-3. Briefly: Antiproliferative activity against human SK-OV-3 cells. In kind it is functional, cell-based.

≈ marks a conversion by molar mass, not a printed value. Calls of active or inactive are those of the source. The rule behind the calls is not given here.

For the compound `O=c1[nH]cc(F)c(=O)[nH]1` [FLUOROURACIL], the IC50 – broadly, the midpoint of a concentration-inhibition curve – with MCF7 [1] turned out to be 78.3 µM; in the assay with ECa-109 cell line, 10.6 µM; in the assay on SMMC-7721, 9.7 µM; in the assay on MGC-803 it was 7.6 µM. Moreover, the ED25 with Ehrlich amounted to 40 microg/cm3.

Regarding `CN1C[C@H](c2ccc(Cl)cc2Cl)[C@@H](C(=O)c2cc3ccccc3[nH]2)C12C(=O)Nc1ccccc12` (some centres not stated), the IC50 with HepG2 [2] is > 50 µM; in the assay on MCF7 [3], 15 µM; in the assay on HCT-116 [4], < 1 µM.

Take `CCn1cc(C(=O)O)c(=O)c2cc(F)c(N3CCNCC3)cc21` [NORFLOXACIN]: the MIC (usually the lowest concentration found to suppress growth) against Pseudomonas aeruginosa [5] was 2 µg/mL (≈ 6.26 µM); against Pseudomonas aeruginosa [6], 2 µg/mL (≈ 6.26 µM); against Pseudomonas aeruginosa [7], > 64 µg/mL; with Pseudomonas aeruginosa [8] it was > 64 µg/mL.

Consider `CCOC(=O)C1=C(C(=O)OCC)C2(NC1CC(C)C)C(=O)Nc1ccccc12` (configuration not stated), for which the IC50 in the assay with A549 was 4.5 µM; in the assay on MCF7 [9], 5 µM; in the assay with HeLa [10], > 50 µM.

For `COc1cccc2c1C(=O)c1c(O)c3c(c(O)c1C2=O)C[C@@](O)(C(=O)CO)C[C@@H]3O[C@H]1C[C@H](N)[C@H](O)[C@H](C)O1` [DOXORUBICIN], the IC50 came out at 6.3 µM in the assay with SK-N-SH; 5.4 µM with HepG2 [11]; 2.4 µM with HCT-116 [12]; 0.09 µM with MDA-MB-435; 1.8 µM with DU-145. Further, the “growth inhibition (GI)” value came to 76.1% with HeLa [13], 79.1% in the assay with HepG2 [14] and 76% with MDA-MB-231.

For `CCOC(=O)C1=C(C)NC(=S)NC12C(=O)Nc1c(Cl)cc(Cl)cc12` (configuration not stated), the IC50 with MCF7 [15] worked out at 21.3 µM; with HepG2 [16] it was 28.4 µM.

Turning to `CCOC(=O)C1=C(C(=O)OCC)C2(C(=O)Nc3ccccc32)N2CCCC12` (configuration not stated), the results for the IC50 in the assay with A549, with MCF7 [9] and in the assay with HeLa [10] were 2 µM, 3.3 µM and 8.3 µM, respectively.

Consider `COc1ccc(C2C3CCCN3C3(C(=O)Nc4ccccc43)C2C(=O)c2ccco2)cc1` (configuration not stated), for which the MIC with Staphylococcus aureus [17] was determined as 64 µg/mL (≈ 149 µM); in the assay on Staphylococcus aureus [18], 128 µg/mL (≈ 299 µM); against Escherichia coli [19], 128 µg/mL (≈ 299 µM); with Klebsiella pneumoniae it was 128 µg/mL (≈ 299 µM); in the assay on Pseudomonas aeruginosa [5], 15 µg/mL (≈ 35 µM); with Pseudomonas aeruginosa [6], 16 µg/mL (≈ 37.3 µM). In addition, the figures for the MIC against Pseudomonas aeruginosa [7] and with Pseudomonas aeruginosa [8] were 16 µg/mL (≈ 37.3 µM) and 32 µg/mL (≈ 74.7 µM), respectively.

In the case of `CC1(C)CC(=O)C2=C(C1)OC(N)=C(C#N)C21C(=O)N(CCCCCCCCCCBr)c2ccccc21` (configuration not stated), in [20], the IC50 was 2.5 µM.

Turning to `O=C(c1c[nH]c2ccccc12)[C@@H]1[C@@H](c2ccc(Cl)cc2Cl)[C@@H]2CSCN2[C@@]12C(=O)Nc1ccccc12`, the results for the IC50 with HepG2 [16], in the assay on HCT-116 [21] and in the assay with PC-3 were 7 µM, 9 µM and 6 µM, respectively.

Consider `CN1C[C@@H](c2ccccc2Cl)[C@H](C(=O)c2c(O)c3ccccc3[nH]c2=O)[C@@]12C(=O)Nc1ccccc12`, for which the midpoint of inhibition in the assay on HeLa [22], the IC50, lay at 10.7 µM.

Take GENTAMICIN: the MIC with Escherichia coli [23] turned out to be 4 µg/mL; in the assay on Pseudomonas aeruginosa [26], 15.6 µg/mL; with Escherichia coli [27], 1.95 µg/mL; in the assay with Pseudomonas aeruginosa [30], 8 µg/mL; against Bacillus subtilis [31], 0.125 µg/mL. Besides, the MIC entry in the assay with Streptococcus pneumoniae [24], in the assay with Bacillus subtilis [25], in the assay with Streptococcus pneumoniae [28] and in the assay on Bacillus subtilis [29] was “inactive” in each case.

Regarding `O=C1/C(=C/c2ccccc2)CNC[C@]12[C@@H](c1ccccc1)C1CCCN1[C@]21C(=O)Nc2ccccc21` (some centres not stated), the figures for the IC50 with CCRF-CEM and in the assay on SK-OV-3 were 25.2 µM and 38.9 µM, respectively.
